According to ChEMBL document CHEMBL4052598, “Discovery of C-Glycosylpyranonaphthoquinones in Streptomyces sp. MBT76 by a Combined NMR-Based Metabolomics and Bioinformatics Workflow” (2017):
Calls of active or inactive are those of the source. The rule behind the calls is not given here.

Key:
Format in all cases: functional
[1] = tested on: Pseudomonas aeruginosa; test: Antimicrobial activity against Pseudomonas aeruginosa PAO1 assessed as growth inhibition zone after 18 hrs by disc diffusion method
[2] = tested on: Escherichia coli; test: Antimicrobial activity against Escherichia coli JM109 assessed as growth inhibition zone after 18 hrs by disc diffusion method
[3] = tested on: Bacillus subtilis; test: Antimicrobial activity against Bacillus subtilis subsp. subtilis str. 168 assessed as growth inhibition zone after 18 hrs by disc diffusion method
[4] = tested on: Staphylococcus aureus; test: Antimicrobial activity against Staphylococcus aureus CECT976 assessed as growth inhibition zone after 18 hrs by disc diffusion method

Compound | inhibition zone (IZ) [1] [mm] | inhibition zone (IZ) [2] [mm] | inhibition zone (IZ) [3] [mm] | inhibition zone (IZ) [4] [mm] | inhibition [1] | inhibition [2] | inhibition [3] | inhibition [4]
CN[C@@H]1[C@@H](O[C@H]2O[C@H](CO)[C@@H](N)[C@H](O)[C@H]2O)OC2C[C@@H](N)[C@@H](O[C@H]3[C@H](O)[C@@H](O)[C@H](N)C[C@@H]3N)OC2[C@@H]1O (stereo partly specified) [APRAMYCIN] | 15 | 7 | 10 | 7 |  |  |  | 
CC1(C)S[C@@H]2[C@H](NC(=O)[C@H](N)c3ccccc3)C(=O)N2[C@H]1C(=O)O [AMPICILLIN] | 7 | 20 | 23 | 10 |  |  |  | 
CN[C@H]1CC[C@H](c2ccc(O)c3c2C(=O)C24OC2([C@@H](C)O[C@@H]2CC(=O)O[C@@H]24)[C@H]3O)O[C@@H]1C (stereo partly specified) |  |  |  |  | inactive | inactive | Active | Active
CN[C@H]1CC[C@H](c2ccc(O)c3c2C(=O)C24OC2([C@@H](C)O[C@H](CC(=O)O)[C@@H]4O)[C@H]3O)O[C@@H]1C (stereo partly specified) |  |  |  |  | inactive | inactive | Active | Active
